Values joined by “and” are separate entries in the source; they are usually repeats but may differ in a detail not shown here. Equal entries are not always repeated.
Tests used:
SfurOBP1 = SfurOBP1 (Sogatella furcifera, UniProt V5T8N5); test: biochemical; type: binding; conditions: for Fluorescence competitive binding assay, fluorescence intensity: OBP1, three replicate columns
Summary of the method: (§1)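 Fluorescence competitive binding used 2.0 µM SfurOBP and 2.0 µM 1-NPN reporter in 50 mM Tris-HCl, pH 7.4, with odorants at 2-20 µM. Fluorescence was read 2 min after adding the odorant (excitation 337 nm, emission 390-490 nm), in triplicate. Ki was calculated from IC50 as IC50/(1 + [1-NPN]/K1-NPN).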

SfurOBP11 = SfurOBP11 (Sogatella furcifera, UniProt V5T6E3); test: biochemical; type: binding
Summary of the method: as §1

SfurOBP2 = SfurOBP2 (Sogatella furcifera, UniProt V5T759); test: biochemical; type: binding
Summary of the method: as §1

SfurOBP3 = SfurOBP3 (Sogatella furcifera, UniProt V5T818); test: biochemical; type: binding; conditions: for Fluorescence competitive binding assay, fluorescence intensity: OBP3, three replicate columns
Summary of the method: as §1

S. furcifera adults = test: Y-tube olfactometer behavioral trials; type: in vivo, Sogatella furcifera; conditions: odorant 50 µL/L vs hexane
Experimental: To test the effect of the rice odorants on the behavior of S. furcifera adults, a glass Y-tube olfactometer (inner diameter 2.0 cm, stem 13 cm, arms 10 cm, angle of arms 60°) according to the previously described ([Wang et al., 2014b]) was employed. An airtight cubic box (70 by 45 by 30 cm) was used to position Y-tube, and the Y-tube was lighted by a 30-W filament lamp 25 cm above it. Air that filtered through activated charcoal and humidified with doubly distilled water was pumped in both arms at a flow rate of 300 mL/min. Two filter paper strips (10 by 1 cm) containing 100 µL odorant source (50 µL/L) and 100 µL control hexane were placed in two holding chambers in the front of the olfactometer, respectively. A S. furcifera adult (2 days after emergence, starved for 0.5 h) was randomly chosen and placed in the stem of the Y-tube. Each insect was given 10 min to choose between the two arms of the Y-tube, the choice was noted if the planthopper reached one-half of the arms’ lengths and stayed in the arm for more than 1 min. Besides, S. furcifera was considered as having no orientation preference. Forty-five individuals were used for each compound, each insect used only once. And the dual-choice experiment was done in an environmentally controlled room (25 ± 1 °C and 50% RH). A Chi-squared test was used to analyze the behavioral assay data by using SPSS19.0 (SPSS Inc., Chicago, IL, USA) software.

Sequence of SfurOBP3 (V5T818 entry or part of it): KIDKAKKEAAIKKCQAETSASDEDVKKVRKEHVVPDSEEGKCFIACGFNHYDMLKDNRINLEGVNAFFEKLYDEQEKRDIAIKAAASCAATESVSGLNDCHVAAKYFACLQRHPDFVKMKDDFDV
Sequence of SfurOBP2 (V5T759 entry or part of it): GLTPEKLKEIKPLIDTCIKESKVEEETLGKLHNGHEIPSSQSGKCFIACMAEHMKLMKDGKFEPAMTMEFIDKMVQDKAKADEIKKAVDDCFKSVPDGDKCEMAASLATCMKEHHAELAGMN
Sequence of SfurOBP11 (V5T6E3 entry or part of it): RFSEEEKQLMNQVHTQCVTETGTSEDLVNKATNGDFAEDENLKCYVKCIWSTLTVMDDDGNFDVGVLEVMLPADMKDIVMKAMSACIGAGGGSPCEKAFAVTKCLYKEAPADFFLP
Sequence of SfurOBP1 (V5T8N5 entry or part of it): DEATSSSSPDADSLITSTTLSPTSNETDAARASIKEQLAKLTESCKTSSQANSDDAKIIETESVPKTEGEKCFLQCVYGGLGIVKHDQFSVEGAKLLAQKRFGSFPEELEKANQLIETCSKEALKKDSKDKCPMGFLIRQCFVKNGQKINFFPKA

C=C(C)C1CC=C(C)CC1 (single isomer, unassigned; (+)) [(+)-limonene] was tested, and the “Fluorescence competitive binding assay, fluorescence intensity” value (SfurOBP1; ligand concentration 2 (μM)) was 5110 and 5104 and 5112, the “Fluorescence competitive binding assay, fluorescence intensity” value (SfurOBP1; ligand concentration 4 (μM)) was 5716 and 6377 and 5308 and the “Fluorescence competitive binding assay, fluorescence intensity” value (SfurOBP1; ligand concentration 6 (μM)) was 6462 and 7662 and 6319. For the same compound, the “Fluorescence competitive binding assay, fluorescence intensity” value (SfurOBP1; ligand concentration 8 (μM)) was 6113 and 5754 and 14807, the “Fluorescence competitive binding assay, fluorescence intensity” value (SfurOBP1; ligand concentration 10 (μM)) was 5995 and 6375 and 7413 and the “Fluorescence competitive binding assay, fluorescence intensity” value (SfurOBP1; ligand concentration 12 (μM)) was 5970 and 7970 and 8226. The “Fluorescence competitive binding assay, fluorescence intensity” value (SfurOBP1; ligand concentration 14 (μM)) was 5770 and 8418 and 5488, the “Fluorescence competitive binding assay, fluorescence intensity” value (SfurOBP1; ligand concentration 16 (μM)) was 4972 and 5953 and 5038 and the “Fluorescence competitive binding assay, fluorescence intensity” value (SfurOBP1; ligand concentration 18 (μM)) was 6525 and 7403 and 8592. For the same compound, the “Fluorescence competitive binding assay, fluorescence intensity” value (SfurOBP1; ligand concentration 20 (μM)) was 7343 and 8136 and 7739, the IC50 (SfurOBP1; SfurOBP1, protein and 1-NPN both 2.0 µM, competitor 2-20 µM, read-out: IC50) was over 20 µM and the IC50 (SfurOBP11; SfurOBP11, protein and 1-NPN both 2.0 µM, competitor 2-20 µM, read-out: IC50) was over 20 µM. For the same compound, the “Fluorescence intensity, fluorescence competitive binding assay, OBP11” value (“Fluorescence intensity … OBP11” for short) (SfurOBP11; ligand concentration 2, replicate 1) was 20185, the “Fluorescence intensity … OBP11” value (SfurOBP11; ligand concentration 2, replicate 2) was 20635 and the “Fluorescence intensity … OBP11” value (SfurOBP11; ligand concentration 2, replicate 3) was 20374. For the same compound, the “Fluorescence intensity … OBP11” value (SfurOBP11; ligand concentration 4, replicate 1) was 19119, the “Fluorescence intensity … OBP11” value (SfurOBP11; ligand concentration 4, replicate 2) was 21150 and the “Fluorescence intensity … OBP11” value (SfurOBP11; ligand concentration 4, replicate 3) was 19404. For the same compound, the “Fluorescence intensity … OBP11” value (SfurOBP11; ligand concentration 6, replicate 1) was 20124, the “Fluorescence intensity … OBP11” value (SfurOBP11; ligand concentration 6, replicate 2) was 20072 and the “Fluorescence intensity … OBP11” value (SfurOBP11; ligand concentration 6, replicate 3) was 19868. The “Fluorescence intensity … OBP11” value (SfurOBP11; ligand concentration 8, replicate 1) was 18585, the “Fluorescence intensity … OBP11” value (SfurOBP11; ligand concentration 8, replicate 2) was 21246 and the “Fluorescence intensity … OBP11” value (SfurOBP11; ligand concentration 8, replicate 3) was 19916. The “Fluorescence intensity … OBP11” value (SfurOBP11; ligand concentration 10, replicate 1) was 19564, the “Fluorescence intensity … OBP11” value (SfurOBP11; ligand concentration 10, replicate 2) was 19568 and the “Fluorescence intensity … OBP11” value (SfurOBP11; ligand concentration 10, replicate 3) was 19649. The “Fluorescence intensity … OBP11” value (SfurOBP11; ligand concentration 12, replicate 1) was 19387, the “Fluorescence intensity … OBP11” value (SfurOBP11; ligand concentration 12, replicate 2) was 19954 and the “Fluorescence intensity … OBP11” value (SfurOBP11; ligand concentration 12, replicate 3) was 20491. For the same compound, the “Fluorescence intensity … OBP11” value (SfurOBP11; ligand concentration 14, replicate 1) was 19217, the “Fluorescence intensity … OBP11” value (SfurOBP11; ligand concentration 14, replicate 2) was 19676 and the “Fluorescence intensity … OBP11” value (SfurOBP11; ligand concentration 14, replicate 3) was 19052. The “Fluorescence intensity … OBP11” value (SfurOBP11; ligand concentration 16, replicate 1) was 18294, the “Fluorescence intensity … OBP11” value (SfurOBP11; ligand concentration 16, replicate 2) was 18202 and the “Fluorescence intensity … OBP11” value (SfurOBP11; ligand concentration 16, replicate 3) was 18385. For the same compound, the “Fluorescence intensity … OBP11” value (SfurOBP11; ligand concentration 18, replicate 1) was 17514, the “Fluorescence intensity … OBP11” value (SfurOBP11; ligand concentration 18, replicate 2) was 18012 and the “Fluorescence intensity … OBP11” value (SfurOBP11; ligand concentration 18, replicate 3) was 18287. The “Fluorescence intensity … OBP11” value (SfurOBP11; ligand concentration 20, replicate 1) was 16634, the “Fluorescence intensity … OBP11” value (SfurOBP11; ligand concentration 20, replicate 2) was 17062 and the “Fluorescence intensity … OBP11” value (SfurOBP11; ligand concentration 20, replicate 3) was 17452. For the same compound, the IC50 (SfurOBP2; SfurOBP2, protein and 1-NPN both 2.0 µM, competitor 2-20 µM, read-out: IC50) was over 20 µM, the “Fluorescence competitive binding assay, OBP2 (raw fluorescence reading)” value (SfurOBP2; ligand concentration 2 (unit not given), replicate column 1 of 3) was 18785 and the “Fluorescence competitive binding assay, OBP2 (raw fluorescence reading)” value (SfurOBP2; ligand concentration 2 (unit not given), replicate column 2 of 3) was 17646. For the same compound, the “Fluorescence competitive binding assay, OBP2 (raw fluorescence reading)” value (SfurOBP2; ligand concentration 2 (unit not given), replicate column 3 of 3) was 18955, the “Fluorescence competitive binding assay, OBP2 (raw fluorescence reading)” value (SfurOBP2; ligand concentration 4 (unit not given), replicate column 1 of 3) was 19168 and the “Fluorescence competitive binding assay, OBP2 (raw fluorescence reading)” value (SfurOBP2; ligand concentration 4 (unit not given), replicate column 2 of 3) was 18029. The “Fluorescence competitive binding assay, OBP2 (raw fluorescence reading)” value (SfurOBP2; ligand concentration 4 (unit not given), replicate column 3 of 3) was 18599, the “Fluorescence competitive binding assay, OBP2 (raw fluorescence reading)” value (SfurOBP2; ligand concentration 6 (unit not given), replicate column 1 of 3) was 18726 and the “Fluorescence competitive binding assay, OBP2 (raw fluorescence reading)” value (SfurOBP2; ligand concentration 6 (unit not given), replicate column 2 of 3) was 17846. For the same compound, the “Fluorescence competitive binding assay, OBP2 (raw fluorescence reading)” value (SfurOBP2; ligand concentration 6 (unit not given), replicate column 3 of 3) was 18376, the “Fluorescence competitive binding assay, OBP2 (raw fluorescence reading)” value (SfurOBP2; ligand concentration 8 (unit not given), replicate column 1 of 3) was 17673 and the “Fluorescence competitive binding assay, OBP2 (raw fluorescence reading)” value (SfurOBP2; ligand concentration 8 (unit not given), replicate column 2 of 3) was 18323. For the same compound, the “Fluorescence competitive binding assay, OBP2 (raw fluorescence reading)” value (SfurOBP2; ligand concentration 8 (unit not given), replicate column 3 of 3) was 17474, the “Fluorescence competitive binding assay, OBP2 (raw fluorescence reading)” value (SfurOBP2; ligand concentration 10 (unit not given), replicate column 1 of 3) was 16329 and the “Fluorescence competitive binding assay, OBP2 (raw fluorescence reading)” value (SfurOBP2; ligand concentration 10 (unit not given), replicate column 2 of 3) was 16489. For the same compound, the “Fluorescence competitive binding assay, OBP2 (raw fluorescence reading)” value (SfurOBP2; ligand concentration 10 (unit not given), replicate column 3 of 3) was 16675, the “Fluorescence competitive binding assay, OBP2 (raw fluorescence reading)” value (SfurOBP2; ligand concentration 12 (unit not given), replicate column 1 of 3) was 16493 and the “Fluorescence competitive binding assay, OBP2 (raw fluorescence reading)” value (SfurOBP2; ligand concentration 12 (unit not given), replicate column 2 of 3) was 16176. For the same compound, the “Fluorescence competitive binding assay, OBP2 (raw fluorescence reading)” value (SfurOBP2; ligand concentration 12 (unit not given), replicate column 3 of 3) was 16335, the “Fluorescence competitive binding assay, OBP2 (raw fluorescence reading)” value (SfurOBP2; ligand concentration 14 (unit not given), replicate column 1 of 3) was 13873 and the “Fluorescence competitive binding assay, OBP2 (raw fluorescence reading)” value (SfurOBP2; ligand concentration 14 (unit not given), replicate column 2 of 3) was 13950. The “Fluorescence competitive binding assay, OBP2 (raw fluorescence reading)” value (SfurOBP2; ligand concentration 14 (unit not given), replicate column 3 of 3) was 13912, the “Fluorescence competitive binding assay, OBP2 (raw fluorescence reading)” value (SfurOBP2; ligand concentration 16 (unit not given), replicate column 1 of 3) was 12506 and the “Fluorescence competitive binding assay, OBP2 (raw fluorescence reading)” value (SfurOBP2; ligand concentration 16 (unit not given), replicate column 2 of 3) was 13445. For the same compound, the “Fluorescence competitive binding assay, OBP2 (raw fluorescence reading)” value (SfurOBP2; ligand concentration 16 (unit not given), replicate column 3 of 3) was 12627, the “Fluorescence competitive binding assay, OBP2 (raw fluorescence reading)” value (SfurOBP2; ligand concentration 18 (unit not given), replicate column 1 of 3) was 13201 and the “Fluorescence competitive binding assay, OBP2 (raw fluorescence reading)” value (SfurOBP2; ligand concentration 18 (unit not given), replicate column 2 of 3) was 13156. The “Fluorescence competitive binding assay, OBP2 (raw fluorescence reading)” value (SfurOBP2; ligand concentration 18 (unit not given), replicate column 3 of 3) was 13110, the “Fluorescence competitive binding assay, OBP2 (raw fluorescence reading)” value (SfurOBP2; ligand concentration 20 (unit not given), replicate column 1 of 3) was 12573 and the “Fluorescence competitive binding assay, OBP2 (raw fluorescence reading)” value (SfurOBP2; ligand concentration 20 (unit not given), replicate column 2 of 3) was 13554. The “Fluorescence competitive binding assay, OBP2 (raw fluorescence reading)” value (SfurOBP2; ligand concentration 20 (unit not given), replicate column 3 of 3) was 12438, the “Fluorescence competitive binding assay, fluorescence intensity” value (SfurOBP3; ligand concentration 2) was 51848 and 49151 and 50500 and the “Fluorescence competitive binding assay, fluorescence intensity” value (SfurOBP3; ligand concentration 4) was 50802 and 50041 and 48259. The “Fluorescence competitive binding assay, fluorescence intensity” value (SfurOBP3; ligand concentration 6) was 50158 and 49686 and 49223, the “Fluorescence competitive binding assay, fluorescence intensity” value (SfurOBP3; ligand concentration 8) was 48228 and 50693 and 49450 and the “Fluorescence competitive binding assay, fluorescence intensity” value (SfurOBP3; ligand concentration 10) was 46402 and 47349 and 46178. For the same compound, the “Fluorescence competitive binding assay, fluorescence intensity” value (SfurOBP3; ligand concentration 12) was 39434 and 38976 and 40288, the “Fluorescence competitive binding assay, fluorescence intensity” value (SfurOBP3; ligand concentration 14) was 38805 and 38818 and 38804 and the “Fluorescence competitive binding assay, fluorescence intensity” value (SfurOBP3; ligand concentration 16) was 34272 and 34325 and 34139. For the same compound, the “Fluorescence competitive binding assay, fluorescence intensity” value (SfurOBP3; ligand concentration 18) was 33102 and 34070 and 35044, the “Fluorescence competitive binding assay, fluorescence intensity” value (SfurOBP3; ligand concentration 20) was 32236 and 31361 and 31799 and the IC50 (SfurOBP3; SfurOBP3, protein and 1-NPN both 2.0 µM, competitor 2-20 µM, read-out: IC50) was over 20 µM. The “behavioral response of S. furcifera (in words)” value (S. furcifera adults) was “strongly attracted”, the “number of insects choosing hexane arm” value (S. furcifera adults; adults) was 7 and the “number of insects choosing volatilies arm” value (S. furcifera adults; adults) was 16. The “number of insects failed (no choice)” value (S. furcifera adults; adults) was 17.
